# Laboratory results published in patent publication US12570684B2 (UNIVERSITY OF TENNESSEE RESEARCH FOUNDATION, priority 2020, dated 2026).
# pIC50: −log10 of the molar value. “Also recorded” adds a separate entry of the source.
# Columns and labels:
# [1] = system: PD002; test: Kinetic proliferation assay (IncuCyte); format: cell-based
# Method: Kinetic Proliferation Assay. To study the effect of treatment with DPAGT1 inhibitors on the growth and proliferation of cells, a fixed number of cells (2×10^4) were plated in multiple wells of a 96 well plate, incubated for 24 h to let cells settle down. Then, CPPB (5) was added (0-50 μM). Images were obtained every 4 h using an IncuCyte Live-Cell Imaging System (Essen BioScience, Ann Arbor, MI). After 72 h, cell proliferation was quantified using the metric phase object confluence (POC), a measurement of the area of the field of view that is covered by cells, which is calculated by the integrated software.
# [2] = system: Snail; test: Western blot of Snail in cervical cancer; format: cell-based; details: effective at 0.2 μM
# [3] = system: PD002; test: Cell migration assay using Transwell (Boyden) chamber; format: cell-based; details: 0.1 μM, 18 h; compared to tunicamycin and gemcitabine at 0.1 μM
# Method: Cell migration assays using Transwell chamber. Cell migration assay was performed using Boyden chamber (thermo fisher). PD002 cells (˜10^4 cells/mL) were seeded in 96-wells plate (Corning, HTS Transwell-96 Well Permeable Supports, pore size: 8 μm) in FBS free media and the lower chambers were filled with 10% FBS medium. CPPB, tunicamycin, or gemcitabine (0.1 μM) was added to the upper chamber. The cells were incubated for 18 h at 37° C. under 5% CO2. The cells were fixed using 4% paraformaldehyde for 0.5 h and stained with 0.05% crystal violet (300 μL/well), after 0.5 h, images were captured via 10× magnification microscopy.
# [4] = system: Capan-2; test: MTT cytotoxicity assay; format: cell-based, human; details: 72 h
# Method: (§1) Cell lines. The human primary PDAC cell lines PANC-1 (ATCC CRL 1469); Capan-2 (ATCC HTB-80) and metastatic PDAC cell lines Capan-1 (ATCC HTB-79), AsPC-1 (ATCC CRL-1682), L1210 (ATCC CCL-219), KB (ATCC CCL-17), HeLa, SiHa (ATCC HTB-35), HCT-116 (ATCC CCL-247), DLD-1 (ATCC CCL221), hTERT-HPNE (ATCC CRL-4023), Vero (ATCC CCL-81) were purchased from the ATCC. The cell lines were cultured and maintained in the media as recommended by the supplier. The cell lines were regularly tested for mycoplasma contamination and authenticated. In addition to ATCC cell lines, Dr. Glazer's lab generated patient-derived PDAC cell line, PD002. PD002 Cells were maintained and cultured in DMEM medium supplemented with 20% FBS and 100 IU/mL penicillin and incubated at 37° C. with 5% CO2.
# (§2) MTT cytotoxicity assay. To study the effect of treatment with DPAGT1 inhibitors on the growth and proliferation of cells, a fixed number of cells (5×10^4 cells/well, 196 μL) were plated in a 96 well plate. Into each well 5 μL of drug concentration was added. After 72 h of incubation with drugs at 37° C., 5% CO2, 10 μL of MTT solution (5 mg/mL in PBS) was added and incubated another 3 h at 37° C., 5% CO2. The medium was removed, and DMSO (200 μL/well) was added. Viability was assessed on the basis of cellular conversion of MTT into a purple formazan product. The absorbance of the colored formazan product was measured at 570 nm by BioTek Synergy HT Spectrophotometer.
# [5] = system: AsPC-1; test: MTT cytotoxicity assay; format: cell-based, human; details: 72 h
# Method: as §1, §2
# [6] = system: PANC-1; test: MTT cytotoxicity assay; format: cell-based, human; details: 72 h
# Method: as §1, §2
# [7] = system: HPNE; test: MTT cytotoxicity assay; format: cell-based
# Method: as §1, §2
# [8] = system: DLD-1; test: MTT cytotoxicity assay; format: cell-based; details: 72 h
# Method: as §1, §2
# [9] = system: L1210; test: MTT cytotoxicity assay; format: cell-based
# Method: as §1, §2
# [10] = target: T1, DPAGT1 (Human) (Homo sapiens, UniProt Q9H3H5); test: DPAGT1 assay; format: biochemical
# T1 construct: made in house; host or cells: Expi293 cells (suspension)
# T1 sequence (Q9H3H5 1-408): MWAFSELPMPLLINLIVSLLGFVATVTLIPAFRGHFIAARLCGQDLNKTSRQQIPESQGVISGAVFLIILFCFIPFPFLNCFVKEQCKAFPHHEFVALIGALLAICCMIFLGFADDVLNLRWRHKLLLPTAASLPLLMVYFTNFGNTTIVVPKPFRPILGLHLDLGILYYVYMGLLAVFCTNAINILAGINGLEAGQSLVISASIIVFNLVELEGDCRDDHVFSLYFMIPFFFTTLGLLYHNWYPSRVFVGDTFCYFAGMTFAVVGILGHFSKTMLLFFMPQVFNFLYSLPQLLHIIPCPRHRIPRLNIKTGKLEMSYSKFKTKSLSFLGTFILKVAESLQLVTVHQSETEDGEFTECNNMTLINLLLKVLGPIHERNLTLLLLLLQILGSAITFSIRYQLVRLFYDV
# Method: DPAGT1 expression and purification. DPAGT1 was expressed in suspended Expi293 cells for 36 h. The cells were lysed by drawing through a 26 g needle (10 times) and membrane protein was extracted using buffer containing 1% decyl f3-D-maltopyranoside detergent. DPAGT1 was purified using HA-agarose resin and a superdex 200 size exclusion column.
# [11] = system: E-cadherin; test: Immunofluorescent staining of E-cadherin; format: cell-based
# [12] = system: DPAGT1; test: Immunofluorescent staining of DPAGT1 expression; format: cell-based
# [13] = system: Snail; test: Immunofluorescence assay using an anti-Snail antibody; format: cell-based
substance,measurement,setting,value
"(2S,3S,4S)-2-((1R)-2-Amino-1-((2S,5R)-5-(2,4-dioxo-3,4-dihydropyrimidin-1(2H)-yl)-4-hydroxy-3-methoxytetrahydrofuran-2-yl)-2-oxoethoxy)-3,4-dihydroxy-N-(4-(4-(4-(trifluoromethoxy)-phenyl)piperidin-1-yl)benzyl)-3,4-dihydro-2H-pyran-6-carboxamide [CPPB]",phase area confluence of PD002 culture after 72 h,"[1]; 50 μM, same as at time 0 h, control (PBS) ca. 70%",10-13%
same,cell proliferation inhibited at time 72 h,[1]; 0.2-20 μM,ca. 20%
same,Snail expression in SiHa,[2],inhibited by treatment of CPPB in a concentration dependent manner
same,cell migration of PD002 via transwell chamber,[3],inhibited on a higher level
same,pIC50,[4],4.52
same,pIC50,[5],4.60
same,pIC50,[6],4.46
same,pIC50,"[7]; MTT, 72 h",< 4.30
same,antiproliferative activity against HPNE,"[7]; at 50 μM, normal pancreatic ductal cell",did not show antiproliferative activity
same,pIC50,[8],4.60
same,pIC50,"[9]; MTT, 72 h",< 4.30
same,antiproliferative activity against L1210,[9]; at 50 μM,did not show antiproliferative activity
same,DPAGT1 inhibitory activity (in words),[10],high nM range DPAGT1 inhibitors
same,pIC50,[10],6.70
same,DPAGT1 inhibitory strength relative to I-CPPB,[10]; CPPB vs. I-CPPB,three times stronger
same,DPAGT1 inhibitory activity relative to tunicamycin,[10]; CPPB vs. tunicamycin,~7.5 times
same,E-cadherin expression level in PD002,[11]; 0.05-0.2 μM,not noticeably changed
same,E-cadherin expression level in Panc-1,[11]; 0.05-0.2 μM,slightly increased
same,"E-cadherin expression levels of PD002, PANC-1, and HCT-116",[11]; 0.05-2.0 μM,not changed significantly
same,DPAGT1 protein expression,[12],decreased
same,DPAGT1 expression in pancreatic cancer cell lines,[12]; 0.2 μM,apparently inhibited
same,order of decrease of DPAGT1 expression,[12]; 0.2 μM,PANC-1>PD002>>HCT-116
same,DPAGT1 expression levels of HCT-116,[12]; 20 μM,remained high
same,DPAGT1 expression of the pancreatic cancer cell lines at high concentration,[12]; 2-20 μM,could not completely be inhibited
same,Snail expression in pancreatic cancer cells,"[13]; PANC-1, AsPC-1, Capan-2, PD002",decreased by the treatment with CPPB in a concentration dependent manner; also recorded: decreased the Snail expression
same,Snail expression level in HCT-116,[13]; between 0.05 and 2.0 μM,not noticeably changed
